# According to patent US11945806B2, “Stabilization of amyloidogenic immunoglobulin light chains” (The Scripps Research Institute, priority 2019, dated 2024):
# Key:
# WIL-FL* [1] = biological target: T1, WIL-FL* (Homo sapiens, UniProt P01721, K101C, form not given); assay: PCFP assay with thermolysin; settings: mean ± sd, n=3; 6.75 μM compound
# WIL-FL* [2] = assay: FP artefact counterscreen (compounds added after 24 h of proteinase K treatment); type: biochemical, human; design: concentration or dose not given beside the values; settings: compound added after 24 h PK treatment; mean ± sd, n=3
# Description: Secondly, to remove compounds that interfere with the FP measurement, the primary screen was repeated in triplicate but compounds were added after 24 h of proteinase K treatment (FIG. 1f). […] Bona fide hits should retain no FP beyond the low control.
# WIL-FL* [3] = biological target: T1, WIL-FL*; assay: Protease-coupled fluorescence polarization (PCFP) assay with proteinase K; settings: for EC50: from dose response curves measured during the screening process
# WIL-FL [4] = biological target: T2, WIL-FL (Homo sapiens, UniProt P01721); assay: Equilibrium unfolding, urea titration; type: biochemical; settings: 1 at 100 μM or 5 at 50 μM, WIL-FL 5 μM; 1.4 M without ligand
# Description: Equilibrium unfolding. WIL-FL (5 μM) was titrated against urea in 50 mM sodium phosphate buffer, pH 7.0, containing 50 μM 5 or 100 μM 1. After incubation overnight at 25° C., intrinsic tryptophan fluorescence emission spectra were measured using a Jasco 8600 fluorimeter (μex=280 nm, μem=300-420 nm). Average wavelength (also known as center of spectral mass) values were calculated using the equation: […]
# λi and Ii are the are the wavelength and intensity at i, respectively. Average wavelength data were normalized for comparison. […] Midpoint urea concentrations were calculated by fitting the titration data to a 2-state unfolding equation: […]
# x is the urea concentration (M), G is the free energy of unfolding (kJ mol^−1), m is the denaturant dependence of the unfolding reaction (kJ mol^−1 M^−1), R is the ideal gas constant, T is the temperature in K, a and c are the fluorescence of the folded and unfolded states, and b and d are the denaturant dependence of the fluorescence of the folded and unfolded states, respectively.
# WIL-FL [5] = biological target: T2, WIL-FL; assay: Kinetic unfolding in urea; type: biochemical; settings: 5 at 50 μM, WIL-FL 5 μM; 3.57 s^−1 for WIL-FL alone
# Description: Kinetic unfolding. WIL-FL (5 μM) in 50 mM sodium phosphate buffer, pH 7.0, containing 50 μM 5 was rapidly diluted into urea in 50 mM sodium phosphate buffer and 50 μM 5 using an APP SX-20 stopped flow fluorimeter at 37° C. The change in fluorescence emission >335 nm was measured as a function of time (λex=280 nm). […] Kinetic transients were fitted to single exponential curves and rates extracted.
# WIL-FL [6] = biological target: T2, WIL-FL; assay: PK proteolysis of unlabeled WIL-FL by SDS-PAGE; settings: WIL-FL 10 μM, small molecule 100 μM, t=2 h
# Description: The experiment in FIG. 1b measured simultaneous proteolysis of labeled and unlabeled LC by adding 20 nM WIL-FL* or JTO-FL* to 5 μM WIL-FL or JTO-FL, respectively. Fluorescein fluorescence images of the SDS-PAGE gels were recorded, after which the gels were Coomassie stained and imaged.
# WIL-FL [7] = biological target: T2, WIL-FL; assay: Unlabeled LC Protease Sensitivity Assay (proteinase K); type: biochemical; settings: small molecule 10 μM, WIL-FL 5 μM, proteinase K 50 nM, 2 hours at 37° C.
# Procedure, shortened: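 Compound at 10 μM (1% DMSO) is mixed with 5 μM WIL-FL and 50 nM proteinase K in PBS pH 7.4/0.02% Pluronic F-127, 37 °C, 2 h, then quenched with PMSF. Remaining protein measured by SEC-UPLC peak area at 280 nm and expressed as fold protection relative to vehicle and no-protease controls.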
# [8] = secondary screen, mean ± sd, n=3, 6.75 μM compound, FP retention after 24 h at 22° C., normalized to high and low controls
# [9] = Primary screen, n=1, 6.75 μM compound
SMILES,Thermolysin activity (%) (WIL-FL* [1]),Counterscreen activity (%) (WIL-FL* [2]),EC50 (WIL-FL* [3]) [µM],PK activity (%) (WIL-FL* [3]; [8]),also measured
CC(C)CC1NC(=O)N(CC(=O)Nc2ccc(C(F)(F)F)cc2)C1=O (racemic) [Compound 8],50.8 ± 1.7,−2.05 ± 2.9,7.36,48.0 ± 2.4,–
CCOC(=O)Cc1c(C)c2ccc(N(CC)CC)cc2oc1=O [Compound 2],33.8 ± 3.1,−4.13 ± 5.2,6.92,37.8 ± 1.4,–
Cc1cc(=O)oc2cc(OC(C)c3ccccc3)ccc12 (centres unmarked) [Compound 3],38.7 ± 3.7,−2.52 ± 5.8,–,43.3 ± 1.5,–
CC(Oc1ccc(/C=C(\C#N)C(N)=O)cc1)c1ccccc1 (centres unmarked) [Compound 4],40.4 ± 1.2,−7.4 ± 4.0,6.33,48.9 ± 2.6,–
Cc1cc(O)nc(N/N=C/C=C/c2ccccc2[N+](=O)[O-])n1 [Compound 5],61.1 ± 5.0,8.04 ± 2.6,5.51,65.2 ± 2.8,midpoint concentration of urea required to unfold the FL LC (WIL-FL [4]): 2.0 M; unfolding rate constant (extrapolated to the absence of denaturant) (WIL-FL [5]): 2.43 s⁻¹
CC(C=NNc1ccc(S(N)(=O)=O)cc1[N+](=O)[O-])c1ccccc1 (centres unmarked) [Compound 6],45.1 ± 6.6,–,4.92,60.8 ± 2.7,–
CC1CCCCC12NC(=O)N(CC(=O)Nc1ccc(C(F)(F)F)cc1)C2=O (centres unmarked) [Compound 7],26.3 ± 1.7,2.51 ± 4.7,5.87,29.3 ± 2.5,–
CCN(CC)c1ccc2ccc(=O)oc2c1 [Compound 9],27.1 ± 1.3,−3.45 ± 3.89,7.9,37.9 ± 1.1,"protection of WIL-FL against PK proteolysis (WIL-FL [6]): stabilizes WIL-FL, but is less efficacious than 1"
CCN(CC)c1ccc2c(C)c(Cl)c(=O)oc2c1 [Compound 10],55.5 ± 3.3,−1.54 ± 2.4,4,48.0 ± 3.8,–
CCN(CC)c1ccc2c(C)c(I)c(=O)oc2c1 [Compound 11],45.7 ± 7.0,0.94 ± 3.9,4.18,58.7 ± 2.0,–
CCN(CC)c1ccc2c(C)c(CN3CCOCC3)c(=O)oc2c1 [Compound 12],30.2 ± 4.2,0.41 ± 2.5,11.3,37.2 ± 7.3,–
CCN(CC)c1ccc2c(CN3CCOCC3)cc(=O)oc2c1 [Compound 13],23.3 ± 8.5,−4.10 ± 1.5,9.15,4.21 ± 4.4,–
CCN(CC)c1ccc2c(C)c(CC(C)=O)c(=O)oc2c1 [Compound 14],34.8 ± 3.1,1.67 ± 4.7,9.04,41.9 ± 3.0,–
CC(Oc1ccc2ccc(=O)oc2c1)c1ccccc1 (centres unmarked) [Compound 15],18.3 ± 4.9,−4.35 ± 5.6,9.28,34.2 ± 3.0,–
CN(C)c1ccc(C2OCC(Cl)([N+](=O)O)CO2)cc1 (centres unmarked) [Compound 16],29.1 ± 0.3,−3.09 ± 3.0,6.73,50.5 ± 5.3,–
CC(=O)c1ccn(S(=O)(=O)c2ccccc2)c1 [Compound 17],–,–,18.5,–,"PK activity (%) (WIL-FL* [3]; 10 μM in pilot screen, n=1): 58.1 (10 μM in pilot screen) %"
CC(=O)c1ccc(S(=O)(=O)c2ccccc2)cc1 [Compound 18],–,–,18,–,"PK activity (%) (WIL-FL* [3]; 10 μM in pilot screen, n=1): 46.5 (10 μM in pilot screen) %"
Cc1cc(=O)oc2cc(O)ccc12 [Compound 19],–,–,–,–,PK activity (%) (WIL-FL* [3]; [9]): 2.27 (Primary screen) %
O=c1ccc2ccccc2o1 [Compound 21],–,–,–,–,PK activity (%) (WIL-FL* [3]; [9]): 2.58 (Primary screen) %
"CCN(CC)c1ccc2c(C)c(CCNC(=O)NCc3cccc(OCC(=O)OC)c3)c(=O)oc2c1 [Compound 312, Methyl 2-(3-((3-(2-(7-(diethylamino)-4-methyl-2-oxo-2H-chromen-3-yl)ethyl)ureido)methyl)phenoxy)acetate]",–,–,–,–,Protection (fold protection of LC from protease) (WIL-FL [7]): C (C ≥ 0.6)
